Laboratory results from PubChem BioAssay (NCI).
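Interpolation was linear, between the two tested concentrations surrounding the appropriate level; five concentrations were tested over 48 hours in 96-well plates. GI50: concentration for 50% inhibition of growth. TGI: concentration producing complete growth inhibition.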

Tests used:
Test in all cases: NCI tumour cell line growth inhibition, 48 h
[1] = test system: HOP-92 NSCLC
[2] = test system: UO-31 renal
[3] = test system: SN12C renal
[4] = test system: DU-145 prostate
[5] = test system: NCI-H226 lung
[6] = test system: SK-OV-3 ovarian
[7] = test system: OVCAR-3 ovarian
[8] = test system: A498 renal
[9] = test system: OVCAR-8 ovarian
[10] = test system: SK-MEL-28 melanoma
[11] = test system: MCF7 breast
[12] = test system: SF-295 CNS
[13] = test system: MOLT-4 leukemia
[14] = test system: ACHN renal
[15] = test system: RXF 393 renal
[16] = test system: TK-10 renal
[17] = test system: KM12 colon
[18] = test system: UACC-62 melanoma
[19] = test system: 786-0 renal
[20] = test system: MDA-MB-231 breast
[21] = test system: EKVX NSCLC
[22] = test system: SF-268 CNS
[23] = test system: OVCAR-5 ovarian
[24] = test system: MALME-3M melanoma
[25] = test system: SF-539 CNS
[26] = test system: SNB-75 CNS
[27] = test system: HL-60(TB) leukemia
[28] = test system: SK-MEL-2 melanoma
[29] = test system: SW-620 colon
[30] = test system: UACC-257 melanoma
[31] = test system: HCT-116 colon
[32] = test system: MDA-MB-435
[33] = test system: HT29 colon
[34] = test system: BT-549 breast
[35] = test system: HCC-2998 colon
[36] = test system: T-47D breast
[37] = test system: A549 NSCLC
[38] = test system: NCI/ADR-RES ovarian
[39] = test system: M14 melanoma
[40] = test system: SK-MEL-5 melanoma
[41] = test system: NCI-H522 lung
[42] = test system: HCT-15 colon
[43] = test system: CCRF-CEM leukemia
[44] = test system: SR leukemia
[45] = test system: PC-3 prostate
[46] = test system: U251 CNS
[47] = test system: NCI-H23 lung
[48] = test system: LOX IMVI melanoma
[49] = test system: OVCAR-4 ovarian
[50] = test system: HOP-62 NSCLC
[51] = test system: HS 578T breast
[52] = test system: SNB-19 CNS
[53] = test system: NCI-H460 lung
[54] = test system: IGROV1 ovarian
[55] = test system: CAKI-1 renal
[56] = test system: COLO 205 colon
[57] = test system: K-562 leukemia

Work on `COc1cc(-c2nn(-c3cccc(NC(=O)NCCNS(=O)(=O)c4ccc(Cl)cc4)c3)cc2-c2ccncc2)ccc1Cl` yielded a GI50 [1] of 886 nM, a TGI [1] of 5.45 µM and a GI50 [2] of 2.45 µM. The TGI [2] was over 100 µM, the GI50 [3] was 1.19 µM and the TGI [3] was 13.2 µM. The GI50 [4] was 0.956 µM, the TGI [4] was over 100 µM and the GI50 [5] was 1.45 µM. It also gave a TGI [5] of 14.3 µM, a GI50 [6] of 1850 nM and a TGI [6] of 17.5 µM. It also gave a GI50 [7] of 0.371 µM, a TGI [7] of 1.55 µM and a GI50 [8] of 0.578 µM. For the same compound, the TGI [8] was 4.31 µM, the GI50 [9] was 1.71 µM and the TGI [9] was 8.48 µM. It also gave a GI50 [10] of 1.48 µM, a TGI [10] of 13.2 µM and a GI50 [11] of 0.363 µM. The TGI [11] was over 100 µM, the GI50 [12] was 0.513 µM and the TGI [12] was 2.09 µM. For the same compound, the GI50 [13] was 1.03 µM, the TGI [13] was over 100 µM and the GI50 [14] was 2.69 µM. The TGI [14] was 11.8 µM, the GI50 [15] was 0.307 µM and the TGI [15] was 2.18 µM. For the same compound, the GI50 [16] was 2.81 µM, the TGI [16] was 9.26 µM and the GI50 [17] was 0.456 µM. The TGI [17] was 2.41 µM, the GI50 [18] was 0.499 µM and the TGI [18] was 2.39 µM. It also gave a GI50 [19] of 1.5 µM, a TGI [19] of 5.78 µM and a GI50 [20] of 1.51 µM. For the same compound, the TGI [20] was 4.38 µM, the GI50 [21] was 2.15 µM and the TGI [21] was over 100 µM. It also gave a GI50 [22] of 0.792 µM, a TGI [22] of 4.39 µM and a GI50 [23] of 2.82 µM. For the same compound, the TGI [23] was over 100 µM, the GI50 [24] was 0.588 µM and the TGI [24] was 2.87 µM. The GI50 [25] was 0.48 µM, the TGI [25] was 2.11 µM and the GI50 [26] was 0.353 µM. It also gave a TGI [26] of over 100 µM, a GI50 [27] of 0.466 µM and a TGI [27] of over 100 µM. It also gave a GI50 [28] of 0.629 µM, a TGI [28] of 2.81 µM and a GI50 [29] of 0.524 µM. For the same compound, the TGI [29] was 30.3 µM, the GI50 [30] was 0.541 µM and the TGI [30] was 3.34 µM. The GI50 [31] was 0.381 µM, the TGI [31] was 2.47 µM and the GI50 [32] was 0.207 µM. The TGI [32] was 0.515 µM, the GI50 [33] was 0.37 µM and the TGI [33] was 1.51 µM. It also gave a GI50 [34] of 1.23 µM, a TGI [34] of 5.14 µM and a GI50 [35] of 1.69 µM. For the same compound, the TGI [35] was 5.09 µM, the GI50 [36] was 0.646 µM and the TGI [36] was 18.1 µM. The GI50 [37] was 1.93 µM, the TGI [37] was 37.4 µM and the GI50 [38] was 22.7 µM. For the same compound, the TGI [38] was over 100 µM, the GI50 [39] was 0.423 µM and the TGI [39] was 2.42 µM. The GI50 [40] was 0.493 µM, the TGI [40] was 1.83 µM and the GI50 [41] was 0.311 µM. For the same compound, the TGI [41] was 1.35 µM, the GI50 [42] was 2.45 µM and the TGI [42] was 8.55 µM. It also gave a GI50 [43] of 0.419 µM, a TGI [43] of over 100 µM and a GI50 [44] of 0.466 µM. It also gave a TGI [44] of 3.53 µM, a GI50 [45] of 0.49 µM and a TGI [45] of 9.55 µM. The GI50 [46] was 0.494 µM, the TGI [46] was 2.09 µM and the GI50 [47] was 1.21 µM. The TGI [47] was 8.79 µM, the GI50 [48] was 0.559 µM and the TGI [48] was 2.46 µM. It also gave a GI50 [49] of 1.03 µM, a TGI [49] of 92 µM and a GI50 [50] of 1.08 µM. The TGI [50] was 33 µM, the GI50 [51] was 0.351 µM and the TGI [51] was 5.14 µM. The GI50 [52] was 1.16 µM, the TGI [52] was over 100 µM and the GI50 [53] was 0.413 µM. It also gave a TGI [53] of 3.69 µM, a GI50 [54] of 1.18 µM and a TGI [54] of over 100 µM.
Compound `C=C(C)[C@@H]1C/C=C(/CO)CC[C@H]2O[C@]2(C)CC/C=C(\C)CC1` has a GI50 [2] of 13.6 µM, a TGI [2] of 29.9 µM and a GI50 [3] of 14.6 µM. The TGI [3] was 29 µM, the GI50 [4] was 18.1 µM and the TGI [4] was 60.5 µM. The GI50 [5] was 19.7 µM, the TGI [5] was 43.7 µM and the GI50 [7] was 22.2 µM. For the same compound, the TGI [7] was 42.9 µM, the GI50 [8] was 10.4 µM and the TGI [8] was 24.3 µM. For the same compound, the GI50 [9] was 24 µM, the TGI [9] was 58.4 µM and the GI50 [10] was 14.3 µM. It also gave a TGI [10] of 32.1 µM, a GI50 [11] of 15.7 µM and a TGI [11] of 31.8 µM. The GI50 [12] was 11.6 µM, the TGI [12] was 24.5 µM and the GI50 [13] was 12.7 µM. For the same compound, the TGI [13] was 32 µM, the GI50 [14] was 29.5 µM and the TGI [14] was over 100 µM. For the same compound, the GI50 [15] was 18.3 µM, the TGI [15] was 33.4 µM and the GI50 [55] was 17.1 µM. It also gave a TGI [55] of 34.8 µM, a GI50 [16] of 9.74 µM and a TGI [16] of 32.8 µM. It also gave a GI50 [17] of 16.1 µM, a TGI [17] of 32.4 µM and a GI50 [18] of 15.1 µM. For the same compound, the TGI [18] was 35.6 µM, the GI50 [56] was 13.2 µM and the TGI [56] was 26.7 µM. It also gave a GI50 [19] of 15.4 µM, a TGI [19] of 34.2 µM and a GI50 [20] of 10.7 µM. It also gave a TGI [20] of 29.7 µM, a GI50 [21] of 12.9 µM and a TGI [21] of 36 µM. The GI50 [22] was 19.9 µM, the TGI [22] was 38.2 µM and the GI50 [23] was 24.7 µM. The TGI [23] was over 100 µM, the GI50 [24] was 12.9 µM and the TGI [24] was 28.5 µM. For the same compound, the GI50 [25] was 18 µM, the TGI [25] was 33.7 µM and the GI50 [57] was 5.73 µM. The TGI [57] was 26.1 µM, the GI50 [26] was 12.1 µM and the TGI [26] was 31.3 µM. It also gave a GI50 [27] of 8.12 µM, a TGI [27] of 24 µM and a GI50 [28] of 15.3 µM. It also gave a TGI [28] of 31.3 µM, a GI50 [29] of 26.3 µM and a TGI [29] of 61.5 µM. It also gave a GI50 [30] of 22 µM, a TGI [30] of 43.6 µM and a GI50 [31] of 19.3 µM. For the same compound, the TGI [31] was 38.3 µM, the GI50 [32] was 13.5 µM and the TGI [32] was 29.2 µM. It also gave a GI50 [33] of 14.5 µM, a TGI [33] of 31.6 µM and a GI50 [34] of 17.5 µM. The TGI [34] was 34.7 µM, the GI50 [35] was 19.8 µM and the TGI [35] was 40.4 µM. The GI50 [36] was 17.4 µM, the TGI [36] was 47.8 µM and the GI50 [37] was 16.1 µM. It also gave a TGI [37] of 50.3 µM, a GI50 [38] of 29.9 µM and a TGI [38] of over 100 µM. It also gave a GI50 [39] of 15 µM, a TGI [39] of 29.9 µM and a GI50 [40] of 12.7 µM. It also gave a TGI [40] of 25.5 µM, a GI50 [41] of 16.1 µM and a TGI [41] of 32.1 µM. For the same compound, the GI50 [42] was 23.6 µM, the TGI [42] was 51.7 µM and the GI50 [43] was 12.5 µM. It also gave a TGI [43] of 34.8 µM, a GI50 [44] of 17.2 µM and a TGI [44] of 38.6 µM. The GI50 [45] was 11.8 µM, the TGI [45] was 30.9 µM and the GI50 [46] was 19.9 µM. The TGI [46] was 36.2 µM, the GI50 [47] was 20.7 µM and the TGI [47] was 66.9 µM. For the same compound, the GI50 [48] was 15.4 µM, the TGI [48] was 30.3 µM and the GI50 [49] was 16.3 µM. For the same compound, the TGI [49] was 34.1 µM, the GI50 [50] was 15 µM and the TGI [50] was 34.4 µM. For the same compound, the GI50 [51] was 18.2 µM, the TGI [51] was 38.7 µM and the GI50 [52] was 18 µM. It also gave a TGI [52] of 33.8 µM, a GI50 [53] of 11.5 µM and a TGI [53] of 27 µM. The GI50 [54] was 18.6 µM and the TGI [54] was 41.3 µM.
